Patent US7541188B2, “Skin substitutes and uses thereof” (Stratatech Corporation, priority 2001, dated 2009)
Like-named read-outs stand apart in the source and are kept apart here.

Key:
[1] = test system: NIKS organotypic cultures; experiment: IL-1α secretion by NIKS organotypic cultures (Quantikine IL-1α ELISA of media); type: cell-based, human; conditions: 0.1% SDS applied topically, 24 hr, 37° C.
Method: Solutions of SDS (0.1%, 0.2%, and 0.5%) were topically applied to air-exposed NIKS organotypic cultures and incubated for 24 hr at 37° C. After 24 hr, the media underneath the cultures was assayed for IL-1α protein using a Quantikine IL-1α ELISA kit (R&D Systems, Minneapolis, Minn.) and cultures were incubated with MTS reagent (Promega Corp., Madison, Wis.) to determine cell viability. Media from untreated cultures contained 25 pg/ml IL-1α, whereas the concentration of IL-1α in cultures treated with 0.1%, 0.2% or 0.5% SDS was 290, 375 and 275 pg/ml respectively.

[2] = test system: skin equivalents; conditions: irritant-treated skin equivalents; cited from earlier work
[3] = test system: in vitro skin equivalent cultures; conditions: substance added to in vitro cultures; cited from earlier work
[4] = test system: in vitro skin equivalent cultures; conditions: substance added to in vitro cultures, cited from earlier work
[5] = test system: tracheobronchial epithelial cells; conditions: cited from earlier work

CCCCCCCCCCCCOS(=O)(=O)[O-].[Na+] [SDS]
concentration of IL-1α in media [1]: 290 pg/mL | expression and secretion of the pro-inflammatory cytokines IL-1α and IL-8 [2]: induce expression and secretion

C=C1/C(=C\C=C2/CCC[C@]3(C)[C@@H]([C@H](C)/C=C/[C@@H](O)C4CC4)CC[C@@H]23)C[C@@H](O)C[C@@H]1O [calcipotriol]
expression and secretion of the pro-inflammatory cytokines IL-1α and IL-8 [2]: induce expression and secretion

EGF: epidermal growth factor (NSDSECPLSHDGYCLHDGVCMYIEALDKYACNCVVGYIGERCQYRDLKWWELR; Epidermal growth factor; UniProt P01133 971-1023, looked up)
Lipid Composition [3]: High

Vitamin D
Barrier Function [4]: Improved/No | Barrier Function ([4]; listed as vitamin D): improvements in some studies

Estrogen
Barrier Function [4]: Accelerates

CC1=C(/C=C/C(C)=C/C=C/C(C)=C/C(=O)O)C(C)(C)CCC1 [trans-retinoic acid]
expression and secretion of the pro-inflammatory cytokines IL-1α and IL-8 [2]: induce expression and secretion | induction of reporter gene containing IL-8 promoter sequences between −1472 and +19 [5]: induced
